Values after ≈ are worked out from the molar mass of the structure shown.

As usually defined, the inhibition is the change of the read-out against control, counted positive when it falls.

What all share (type): cell-based
For assay [1], the system named is human umbilical-vein endothelial cells (HUVEC). Description: Cell Proliferation Assay (CPA) Test, HUVEC, MTT. As to conditions: Homo sapiens, M199 (2+) medium, read-out: CPA (IC50 μg/ml). The method, then:
(§1) Furthermore, the sample liquids of compounds used in the CPA and CMA tests were prepared in the manner described below. Firstly, after weighing out each compound, a calculated amount of DMSO was added. After dissolving the compound in the DMSO, phosphate buffered physiological saline (PBS (-)) was added to bring the sample concentration to 1 mg/ml in PBS (-). The amount of DMSO used to dissolve the compounds was adjusted in advance to that the concentration of DMSO at that time was 5%. The resulting liquids were diluted 10-fold with 5% DMSO-PBS (-) solution to prepare sample solutions having a concentration of 0.1 mg/ml. In the TFA test, 320 μl of the prepared 1 mg/ml sample solutions were removed followed by addition of 680 μl of PBS (-) to prepare samples having a concentration of […]. Moreover, 100 μl of this solution was removed followed by addition of 900 μl of PBS (-) to dilute 10-fold and prepare samples having a concentration of 1 μg/ml. P [Cell Proliferation Assay (CPA) Test]
100 μl of the 7th subculture obtained from first generation human umbilical-vein endothelial cells (HUVEC) were disseminated in the wells (N=3) of a 96-well plate (Iwaki, Cat. #4860-010) at a cell concentration of 5×10^4 cells/ml. M-199 medium containing +20% FCS, 10 ng/ml of b-FGF and 10 ng/ml of EGF (abbreviated as "M199 (2+)") was used for the medium.
After culturing for 24 hours at 37° C. in the presence of 5% CO2 under the above conditions, 20 μl/well of MTT solution (solution containing 5 mg/ml of PBS (-)) were added to the control well followed by accurately culturing for 4 hours at 37° C. in the presence of 5% CO2. Following completion of culturing, 100 μl/well of a stop solution (0.001 N aqueous HCl solution containing 10% SDS) were added. On the other hand, 10 μl/well of sample solutions at concentrations of 1 mg/ml and 0.1 mg/ml were added to the other wells.
After culturing for 24 hours at 37° C. in the presence of 5% CO2, the medium was replaced and 100 μl/well of M199 (2+) were added. The samples were also replaced in each well at this time.
Moreover, after additionally culturing for 48 hours at 37° C. in the presence of 5% CO2, 20 μl/well of MTT solution were added to the wells containing sample and the control well followed by accurately culturing for 4 hours at 37° C. and adding 100 μl/well of stop solution.

Assay [2] has the same test system. As to the kind of experiment: Cell Migration Assay (CMA) Test, HUVEC (% relative to control). As to conditions: Homo sapiens, HUVEC, 24 hours, 60% or less = remarkable inhibition, read-out: CMA (% relative to control); for activity at 1 µg/mL: 1 μg/ml; for activity at 10 µg/mL: 10 μg/ml. The method, then:
as §1
After disseminating the 7th subculture of HUVEC obtained from the first generation in the same manner as above at 4 ml/well (3.0×10^5 cells/well) in a collagen-coated 6-well plate (NUNC), the cells were cultured for 48 hours at 37° C. in the presence of 5% CO2. The cells reached nearly a completely confluent state as a result of this culturing.
A double-edged, disposable razor blade was divided into four sections, of which one of those sections was pinched between a pair of forceps. Using this piece of razor blade, the cell surface in the above confluent state was scraped off. Two areas of the cell surface were scraped off in each well.
After washing the surface of the wells from which the cells had been scraped off with medium, 4.0 ml of fresh M199 (2+) medium were added followed by addition of 40 μl or 4 μl of sample solution (1 mg/ml). The cells were cultured for 24 hours at 37° C. in the presence of 5% CO2. After discarding the culture liquid, the cells were fixed for 30 minutes with methanol. Next, after staining the cells for 4 hours with Giemsa stain, the plates were washed with tap water and air dried.
Measurement of cell migration was performed by microscopically counting the number of cells that had newly migrated within the range of a 1 mm×1 mm block. […] The total number of cells counted in blocks 1 through 5 were then totaled to determine the overall total number of cells. Four fields were counted for each well.
Evaluation was performed determining the cell migration (%) according to the following formula.
Cell migration rate=number of migrating cells to which sample was added×100/number of migrating of control (+)
Control (+) indicates the number of migrating cells in the control well containing M199 (2+).

Assay [3] shares this test system. Description: Tube Formation Assay (TFA) Test, HUVEC in collagen gel. The conditions noted are these: Homo sapiens, HUVEC, 20 h, 20 hours, 40% or less judged remarkable, read-out: TFA (inhibition rate, %); for inhibition at 1 µg/mL: 1 μg/ml; for inhibition at 10 µg/mL: 10 μg/ml. In outline:
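Inhibition rate (%) of tube formation is computed from tube lengths against control (+) and control (-), measured after 20 h at 37 °C in M-199 with 20% FCS, 30 ng/ml b-FGF and 0.1 μM PMA. Samples were applied to HUVEC on collagen and covered by a second collagen layer (double-layer gel).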

Regarding `CNC(=O)O[C@@H]1OC=C(C(=O)NCCc2ccccc2)[C@H]2C[C@@H]3O[C@]3(C)[C@H]12` [compound 28, (1S,4aS,6S,7R,7aR)-6,7-epoxy-1,4a,5,6,7,7a-hexahydro-7-methyl-1-(methylcarbamoyloxy) cyclopenta [c]-pyrane-4-carboxylic acid phenylethylamide], in assay [1], the IC50 was more than 100 µg/mL. For the same compound, in assay [2], the activity at 1 µg/mL was found to be 94.3% and the activity at 10 µg/mL was 114%. Besides, in assay [3], the inhibition at 1 µg/mL is 41.3% and the inhibition at 10 µg/mL was 36.8%.
Regarding `CNC(=O)O[C@@H]1OC=C(C(=O)OC)[C@H]2CC[C@@]3(CO3)[C@@H]12` [compound 52, (1S,4aS,7R,7aR)-1-(methylcarbamoyloxy)-1,4a,5,6,7,7a-hexahydrospiro [cyclopenta [c]pyrane-7(1H),2'-oxirane]-4-carboxylic acid methylester], in assay [1], the IC50 is more than 100 µg/mL. In addition, in assay [2], the activity at 1 µg/mL turned out to be 101% and the activity at 10 µg/mL is 103%. Besides, in assay [3], the inhibition at 1 µg/mL stood at 21.7% and the inhibition at 10 µg/mL is -6.5%.
As to `CCN(CC)C(=O)C1=CO[C@@H](OC(=O)NC)[C@@H]2[C@@H]1C[C@@H]1O[C@]21C` [compound 19, (1S,4aS,6S,7R,7aR)-6,7-epoxy-1,4a,5,6,7,7a-hexahydro-7-methyl-1-(methylcarbamoyloxy) cyclopenta [c]-pyrane-4-carboxylic acid diethylamide], the IC50 in assay [1] was more than 100 µg/mL. Further, in assay [2], the activity at 1 µg/mL turned out to be 96.4% and the activity at 10 µg/mL worked out at 93.5%. In assay [3], the inhibition at 1 µg/mL was 23.6% and the inhibition at 10 µg/mL is 21.3%.
On to `CNC(=O)OC1OC=C(C(=O)N(C)C)C2CC3OC3(C)C12` (stereo not shown) [compound 18], for which, in assay [1], the IC50 was more than 100 µg/mL. Moreover, in assay [2], the activity at 1 µg/mL came out at 90.3% and the activity at 10 µg/mL was found to be 71.5%. Also, in assay [3], the inhibition at 1 µg/mL worked out at 28.6% and the inhibition at 10 µg/mL was found to be 27.7%.
On to `CNC(=O)OC1OC=C(C(=O)OCc2ccco2)C2CC3OC3(C)C12` [compound 10, (1S,4aS,6S,7R,7aR)-6,7-epoxy-1,4a,5,6,7,7a-hexahydro-7-methyl-1-(methylcarbamoyloxy) cyclopenta [c]-pyrane-4-carboxy-lic acid furfurylester], for which the IC50 in assay [1] was 93.3 µg/mL (≈ 267 µM). Also, in assay [2], the activity at 1 µg/mL stood at 101% and the activity at 10 µg/mL came to 103%. In assay [3], the inhibition at 1 µg/mL came out at 28.6% and the inhibition at 10 µg/mL was determined as 27.7%.
Turning to `CNC(=O)OC1OC=C(C(=O)N2CCCC2)C2CC3OC3(C)C12` [compound 25, (1S,4aS,6S,7R,7aR)-6,7-epoxy-1,4a,5,6,7,7a-hexahydro-7-methyl-1-(methylcarbamoyloxy) cyclopenta [c]-pyrane-4-carboxylic acid pyrrolidylamide], the IC50 in assay [1] was more than 100 µg/mL. Moreover, in assay [2], the activity at 1 µg/mL was found to be 91.8% and the activity at 10 µg/mL is 87.5%. Besides, in assay [3], the inhibition at 1 µg/mL came out at 31.8% and the inhibition at 10 µg/mL was 14.5%.
Turning to `CNC(=O)O[C@@H]1OC=C(C(=O)OC)[C@H]2C[C@@H]3O[C@]3(COC(C)=O)[C@@H]12` [compound 46, (1S,4aS,6S. 7R,7aR)-7-(acetoxymethyl)-6,7-epoxy-1-(methylcarbamoyloxy)-1,4a,5,6,7,7a-hexahydro [c] pyrane-4-carboxylic acid methylester], in assay [1], the IC50 is more than 100 µg/mL. In assay [2], the activity at 1 µg/mL was found to be 105% and the activity at 10 µg/mL worked out at 103%. Also, in assay [3], the inhibition at 1 µg/mL is -0.8% and the inhibition at 10 µg/mL came out at 1.5%.
In the case of `CNC(=O)O[C@@H]1OC=C(C(=O)OCCc2ccccc2)[C@H]2C[C@@H]3O[C@]3(C)[C@H]12` [compound 12, (1S,4aS,6S,7R,7aR)-6,7-epoxy-1,4a,5,6,7,7a-hexahydro-7-methyl-1-(methylcarbamoyloxy) cyclopenta [c]-pyrane-4-carboxylic acid phenylethylester], the IC50 in assay [1] was more than 100 µg/mL. In assay [2], the activity at 1 µg/mL was 101% and the activity at 10 µg/mL worked out at 89.8%. In assay [3], the inhibition at 1 µg/mL turned out to be 32.7% and the inhibition at 10 µg/mL was found to be 32.5%.
With `CNC(=O)O[C@@H]1OC=C(C(=O)OCc2ccccc2)[C@H]2C[C@@H]3O[C@]3(C)[C@H]12` [compound 11, (1S,4aS,6S,7R,7aR)-6,7-epoxy-7-methyl-1-(methylcarbamoyloxy)-1,4a,5,6,7,7a-hexahydrocyclopenta [c]-pyrane-4-carboxylic acid benzyl ester], the IC50 in assay [1] was more than 100 µg/mL. Further, in assay [2], the activity at 1 µg/mL came to 102% and the activity at 10 µg/mL came out at 85.5%. In assay [3], the inhibition at 1 µg/mL stood at 20.7% and the inhibition at 10 µg/mL is 40.3%.
For `CNC(=O)OC1OC=C(C(=O)N2CCN(C)CC2)C2CC3OC3(C)C12` [compound 20, (1S,4aS,6S,7R,7aR)-6,7-epoxy-1,4a,5,6,7,7a-hexahydro-7-methyl-1-(methylcarbamoyloxy) cyclopenta [c]-pyrane-4-carboxylic acid 4-methylpiperazylamide], in assay [1], the IC50 is more than 100 µg/mL. Also, in assay [2], the activity at 1 µg/mL came to 97.4% and the activity at 10 µg/mL came out at 89.5%. Further, in assay [3], the inhibition at 1 µg/mL was 34.3% and the inhibition at 10 µg/mL is 19.6%.
As for `CNC(=O)O[C@@H]1OC=C(C(=O)OC)[C@H]2C[C@H]3O[C@@]3(C)C12` (stereo in doubt) [Compound 57, (1S,4aS,6R,7S,7aR)-6,7-epoxy-7-methyl-1-(methylcarbamoyloxy)-1,4a,5,6,7,7a-hexahydrocyclopenta [c] pyrane-4-carboxylic acid methylester], the IC50 in assay [1] is more than 100 µg/mL. For the same compound, in assay [2], the activity at 1 µg/mL worked out at 96% and the activity at 10 µg/mL came to 93%. In assay [3], the inhibition at 1 µg/mL was determined as 17.7% and the inhibition at 10 µg/mL was found to be 13.5%.
For the compound `CCCCCCNC(=O)O[C@@H]1OC=C(C(=O)OC)[C@H]2C[C@@H]3O[C@]3(C)[C@H]12` [compound 33, (1S,4aS,6S,7R,7aR)-6,7-epoxy-1-(n-hexylcarbamoyloxy)-1,4a,5,6,7,7a-hexahydro-7-methylcyclopenta [c] pyrane-4-carboxylic acid methylester], in assay [1], the IC50 was more than 100 µg/mL. Also, in assay [2], the activity at 1 µg/mL was determined as 109% and the activity at 10 µg/mL amounted to 102%.
On to `CO[C@@H]1[C@H](OC(=O)/C=C/C=C/C=C/C=C/C(=O)O)CC[C@]2(CO2)[C@H]1[C@@]1(C)O[C@@H]1CC=C(C)C` [Fumagilline, reference compound], for which, in assay [1], the IC50 came out at 33.3 µg/mL (≈ 72.6 µM). Further, in assay [2], the activity at 1 µg/mL was 95.5% and the activity at 10 µg/mL was found to be 74.2%.

These data come from patent US6225478A, “Iridoid derivatives and neovascularization inhibitors containing the same as active ingredient” (Tsumura & Co., priority 1999, dated 2001).
